From patent US8791132B2, “Compounds and methods for treatment of hypertension” (Medivation Technologies, Inc., priority 2011, dated 2014)
Where two headings read alike, the source gives them in different places. Each block holds one compound with its values, some of them ahead of it.

Experiments:
[1] = biological target: T1, rat adrenergic α1B receptor (Rattus norvegicus, UniProt P15823); experiment: Radioligand binding, adrenergic α1B ([3H]Prazosin); details: for Percentage inhibition of ligand binding, Adrenergic α1B / Percentage inhibition of ligand binding, Adrenergic α1B (0.1 μM): 0.1 µM
T1 construct: rat adrenergic α1B receptor obtained from Wistar Rat liver; from tissue; host or cells: Wistar rat liver
T1 sequence (P15823 1-515): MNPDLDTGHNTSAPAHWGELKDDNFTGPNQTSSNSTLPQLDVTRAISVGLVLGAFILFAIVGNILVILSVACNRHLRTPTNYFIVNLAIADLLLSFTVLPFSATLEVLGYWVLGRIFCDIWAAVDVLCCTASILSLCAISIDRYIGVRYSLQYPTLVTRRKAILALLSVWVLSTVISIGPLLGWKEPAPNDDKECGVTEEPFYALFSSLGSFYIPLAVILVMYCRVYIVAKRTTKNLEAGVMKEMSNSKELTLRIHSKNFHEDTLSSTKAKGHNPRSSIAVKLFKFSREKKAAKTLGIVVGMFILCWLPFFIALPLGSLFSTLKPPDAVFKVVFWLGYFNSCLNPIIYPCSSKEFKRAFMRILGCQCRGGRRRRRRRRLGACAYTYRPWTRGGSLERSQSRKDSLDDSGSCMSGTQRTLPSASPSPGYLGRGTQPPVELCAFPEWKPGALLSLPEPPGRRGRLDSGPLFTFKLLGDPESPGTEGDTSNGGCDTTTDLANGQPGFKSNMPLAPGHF
Method: To evaluate in radioligand binding assays the activity of compounds of the invention, rat adrenergic α1B receptor obtained from Wistar Rat liver (Garcia-S'ainz, J. et al, Biochem. Biophys. Res. Commun. 186:760, 1992; Michel, A. et al, Br. J. Pharmacol. 98:883, 1989) in a modified Tris-HCl buffer (50 mM Tris-HCl buffer, pH 7.4, 0.5 mM EDTA) was used. Compounds of the invention were incubated with 0.25 nM [^3H]Prazosin for 60 min at 25° C. Non-specific binding was estimated in the presence of 10 μM phentolamine. Receptor proteins were filtered and washed, the filters were then counted to determine [^3H]Prazosin specifically bound. […] Compounds of the invention were tested in this biochemical assay and percent inhibition of specific binding was determined. Biochemical assay results are presented as the percent inhibition of specific binding in Table B1.

[2] = biological target: T2, human recombinant adrenergic α2A receptor (Homo sapiens, UniProt P08913); experiment: Radioligand binding, adrenergic α2A ([3H]MK-912); details: for Percentage inhibition of ligand binding, Adrenergic α2A / Percentage inhibition of ligand binding, Adrenergic α2A (0.1 μM): 0.1 µM
T2 construct: expressed in transfected cells; host or cells: insect Sf9 cells
T2 sequence (P08913 1-465): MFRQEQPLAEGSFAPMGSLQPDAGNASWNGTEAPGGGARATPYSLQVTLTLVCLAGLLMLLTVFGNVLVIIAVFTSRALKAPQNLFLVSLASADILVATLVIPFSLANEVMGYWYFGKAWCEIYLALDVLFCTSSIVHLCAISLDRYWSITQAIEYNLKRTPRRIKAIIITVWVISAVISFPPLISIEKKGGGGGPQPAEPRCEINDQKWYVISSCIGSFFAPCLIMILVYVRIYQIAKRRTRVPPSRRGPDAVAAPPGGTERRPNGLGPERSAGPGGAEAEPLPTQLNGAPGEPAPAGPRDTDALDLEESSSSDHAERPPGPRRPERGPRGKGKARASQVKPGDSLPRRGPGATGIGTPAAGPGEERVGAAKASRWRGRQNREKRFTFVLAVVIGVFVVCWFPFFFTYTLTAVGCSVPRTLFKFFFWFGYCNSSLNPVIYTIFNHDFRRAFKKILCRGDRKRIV
Method: To evaluate in radioligand binding assays the activity of compounds of the invention, human recombinant adrenergic α2A receptor expressed in insect Sf9 cells (Uhlen, S. et al, J. Pharmacol. Exp. Ther. 271:1558, 1994) in a modified Tris-HCl buffer (50 mM Tris-HCl, pH 7.4, 12.5 mM MgCl2, 2 mM EDTA) was used. Compounds of invention were incubated with 1 nM [^3H]MK-912 for 60 min at 25° C. MK912 is (2S-trans)-1,3,4,5′,6,6′,7,12b-octahydro-1′,3′-dimethyl-spiro[2H-benzofuro[2,3-a]quinolizine-2,4′(1′H)-pyrimidin]-2′(3′H)-one hydrochloride. Non-specific binding was estimated in the presence of 10 μM WB-4101 (2-(2,6-Dimethoxyphenoxyethyl)aminomethyl-1,4-benzodioxane hydrochloride). Receptor proteins were filtered and washed, the filters were then counted to determine [^3H]MK-912 specifically bound. […] Compounds of the invention were tested in this biochemical assay and percent inhibition of specific binding was determined. Biochemical assay results are presented as the percent inhibition of specific binding in Table B1.

[3] = biological target: T3, human recombinant adrenergic α2B receptor (Homo sapiens, UniProt P18089); experiment: Radioligand binding, adrenergic α2B ([3H]Rauwolscine); details: for Percentage inhibition of ligand binding, Adrenergic α2B / Percentage inhibition of ligand binding, Adrenergic α2B (0.03 μM): 0.03 µM
T3 construct: expressed in transfected cells; host or cells: CHO-K1
T3 sequence (P18089 1-450): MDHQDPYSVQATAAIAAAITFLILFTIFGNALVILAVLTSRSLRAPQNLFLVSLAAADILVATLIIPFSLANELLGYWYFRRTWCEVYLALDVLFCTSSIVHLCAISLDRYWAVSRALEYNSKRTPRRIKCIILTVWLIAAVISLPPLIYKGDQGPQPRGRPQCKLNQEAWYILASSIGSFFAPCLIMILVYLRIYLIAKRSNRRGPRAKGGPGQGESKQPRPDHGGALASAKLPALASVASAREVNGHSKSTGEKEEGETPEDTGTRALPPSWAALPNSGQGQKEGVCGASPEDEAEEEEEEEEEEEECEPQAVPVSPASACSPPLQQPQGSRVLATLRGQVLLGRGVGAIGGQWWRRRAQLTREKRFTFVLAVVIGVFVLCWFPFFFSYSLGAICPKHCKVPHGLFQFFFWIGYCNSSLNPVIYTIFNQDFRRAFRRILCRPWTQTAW
Method: To evaluate in radioligand binding assays the activity of compounds of the invention, human recombinant adrenergic α2B receptor expressed in Chinese hamster ovary (CHO) K1 cells (Uhlen, S. et al, Eur. J. Pharmacol. 343(1):93, 1998) in a modified Tris-HCl buffer (50 mM Tris-HCl, pH 7.4, 12.5 mM MgCl2, 1 mM EDTA, 0.2% BSA) was used. Compounds of the invention were incubated with 2.5 nM [3H]Rauwolscine for 60 min at 25° C. Non-specific binding was estimated in the presence of 10 μM Prazosin. Receptor proteins were filtered and washed, the filters were then counted to determine [3H]Rauwolscine specifically bound. […] Compounds of the invention were tested in this biochemical assay and percent inhibition of specific binding was determined. Biochemical assay results are presented as the percent inhibition of specific binding in Table B1.

[4] = compound at 0.1 μM, [3H]Prazosin, repeat datapoints each shown
[5] = compound at 0.1 μM, [3H]MK-912, repeat datapoints each shown
[6] = compound at 0.03 μM, [3H]Rauwolscine, repeat datapoints each shown
[7] = read-out: Percentage inhibition of ligand binding, Adrenergic α1B (0.1 μM), compound at 0.1 μM, [3H]Prazosin, repeat datapoints each shown
[8] = read-out: Percentage inhibition of ligand binding, Adrenergic α2A (0.1 μM), compound at 0.1 μM, [3H]MK-912, repeat datapoints each shown
[9] = read-out: Percentage inhibition of ligand binding, Adrenergic α2B (0.03 μM), compound at 0.03 μM, [3H]Rauwolscine, repeat datapoints each shown
[10] = compound at 0.1 μM, [3H]Prazosin, repeat assays, each datapoint shown
[11] = compound at 0.1 μM, [3H]Prazosin, repeat assays, each datapoint shown, read-out: Percentage inhibition of ligand binding, Adrenergic α1B
[12] = compound at 0.1 μM, [3H]MK-912, repeat assays, each datapoint shown
[13] = compound at 0.1 μM, [3H]MK-912, repeat assays, each datapoint shown, read-out: Percentage inhibition of ligand binding, Adrenergic α2A
[14] = compound at 0.03 μM, [3H]Rauwolscine, repeat assays, each datapoint shown
[15] = compound at 0.03 μM, [3H]Rauwolscine, repeat assays, each datapoint shown, read-out: Percentage inhibition of ligand binding, Adrenergic α2B
[16] = 0.03 μM compound, read-out: Percentage inhibition of ligand binding, Adrenergic α2B

SMILES: Cc1cnc2c(c1)c1c(n2CC(O)c2ccc(C#N)cc2)CCN(C)C1 (stereo not drawn) [compound 145]
inhibition at 0.1 µM [1, 7]: 49%
inhibition at 0.1 µM [2, 8]: 6%
inhibition at 0.03 µM [3, 9]: 61%

SMILES: CN1CCc2c(c3cc(Cl)ccc3n2CC(C)(O)c2cccnc2)C1 (single isomer, unassigned) [31a]
inhibition at 0.03 µM ([1]; compound at 0.03 μM, [3H]Prazosin, repeat assays, each datapoint shown, read-out: Percentage inhibition of ligand binding, Adrenergic α1B): 16%
Percentage inhibition of ligand binding, Adrenergic α1B [1, 10]: 28%
inhibition at 0.1 µM [1, 11]: 25%
Ki [2]: 167 nM
inhibition at 0.03 µM ([2]; compound at 0.03 μM, [3H]MK-912, repeat assays, each datapoint shown, read-out: Percentage inhibition of ligand binding, Adrenergic α2A): 11%
Percentage inhibition of ligand binding, Adrenergic α2A [2, 12]: 27%
inhibition at 0.1 µM [2, 13]: 19%
Percentage inhibition of ligand binding, Adrenergic α2B [3, 14]: 97%
inhibition at 0.03 µM [3, 15]: 93%
Ki ([3]; read-out: Ki α2B): 1.58 nM

SMILES: CN1CCc2c(n(CC(C)(O)c3cccnc3)c3ccc(Cl)cc23)C1 (single isomer, unassigned) [28b]
Percentage inhibition of ligand binding, Adrenergic α1B [1, 10]: 20%
Percentage inhibition of ligand binding, Adrenergic α2A [2, 12]: 24%
Percentage inhibition of ligand binding, Adrenergic α2B [3, 14]: 37%

SMILES: Cc1ccc2c(c1)c1c(n2CC(O)c2ccncc2)CC2CCC1N2C (stereo not drawn) [compound 73]
inhibition at 0.1 µM [1, 11]: 17%
inhibition at 0.1 µM [2, 13]: 15%
inhibition at 0.03 µM [3, 15]: 61%

SMILES: CN1CCc2c(n(CC(O)c3ccncc3)c3ccc(Cl)cc23)CC1 (single isomer, unassigned) [15a, 2-(9-chloro-3-methyl-2,3,4,5-tetrahydroazepino[4,5-b]indol-6(1H)-yl)-1-(pyridin-4-yl)ethanol]
Percentage inhibition of ligand binding, Adrenergic α1B [1, 10]: 81%
Percentage inhibition of ligand binding, Adrenergic α2A [2, 12]: 6%
Percentage inhibition of ligand binding, Adrenergic α2B [3, 14]: 65%

SMILES: CN1CCc2c(c3cccc(Cl)c3n2CC(O)c2ccncc2)C1 (single isomer, unassigned) [45b]
Percentage inhibition of ligand binding, Adrenergic α1B [1, 10]: 24%
Percentage inhibition of ligand binding, Adrenergic α2A [2, 12]: 16%
Percentage inhibition of ligand binding, Adrenergic α2B [3, 14]: 96%

SMILES: CN1CCc2c(c3ccc(C(F)(F)F)cc3n2CC(O)c2cccnc2)C1 (single isomer, unassigned) [40b]
Percentage inhibition of ligand binding, Adrenergic α1B [1, 10]: −2%
Percentage inhibition of ligand binding, Adrenergic α2A [2, 12]: 13%
Percentage inhibition of ligand binding, Adrenergic α2B [3, 14]: 29%

The next lines start with the values.

Percentage inhibition of ligand binding, Adrenergic α1B ([1]; 0.1 μM compound): 5%
Percentage inhibition of ligand binding, Adrenergic α2A ([2]; 0.1 μM compound): 16%
Percentage inhibition of ligand binding, Adrenergic α2B ([3]; 0.03 μM compound): 7%
SMILES: Cc1cnc2c(c1)c1c(n2CC(C)(O)c2cccnc2)CCN(C)C1 (single isomer, unassigned) [II-99b]

Percentage inhibition of ligand binding, Adrenergic α1B (0.1 μM) [1, 4]: 27%
Percentage inhibition of ligand binding, Adrenergic α2A (0.1 μM) [2, 5]: 2%
Percentage inhibition of ligand binding, Adrenergic α2B (0.03 μM) [3, 6]: 41%
SMILES: CN1CCc2c(c3cc(Cl)cnc3n2CC(C)(O)c2ccc(C(F)(F)F)nc2)C1 (single isomer, unassigned) [II-109a]

inhibition at 0.1 µM [1, 7]: 90%
inhibition at 0.1 µM [2, 8]: 85%
inhibition at 0.03 µM [3, 9]: 103%
SMILES: Cc1ccc2c(c1)c1c(n2CC(O)c2cccnc2)CCN2CCCC12 (stereo not drawn) [II-131, 2-(9-Methyl-1,2,3,4,5,10c-hexahydro-3a,6-diaza-cyclopenta[c]fluoren-6-yl)-1-pyridin-3-yl-ethanol]

Percentage inhibition of ligand binding, Adrenergic α1B (0.1 μM) [1, 4]: 30%
Percentage inhibition of ligand binding, Adrenergic α2A (0.1 μM) [2, 5]: 22%
Percentage inhibition of ligand binding, Adrenergic α2B (0.03 μM) [3, 6]: 68%
SMILES: Cc1ccc2c(c1)c1c(n2CC(O)c2ccncc2Cl)CCN(C)C1 (single isomer, unassigned) [135b]

inhibition at 0.1 µM [1, 7]: -2%
inhibition at 0.1 µM [2, 8]: 3%
inhibition at 0.03 µM [3, 9]: 10%
SMILES: Cc1ccc2c(c1)c1c(n2CC(CC(=O)O)c2ccncc2)CCN(C)C1 (stereo not drawn) [II-228]

Percentage inhibition of ligand binding, Adrenergic α1B ([1]; 0.1 μM compound): 61%
Percentage inhibition of ligand binding, Adrenergic α2A ([2]; 0.1 μM compound): 7%
inhibition at 0.03 µM [3, 16]: 47%
SMILES: CC(=O)OC(C)(Cn1c2c(c3cc(C)ccc31)CN(C)CC2)c1cccnc1 (single isomer, unassigned) [II-15a, acetic acid 2-(2,8-dimethyl-1,2,3,4-tetrahydro-pyrido[4,3-b]indol-5-yl)-1-methyl-1-pyridin-3-yl-ethyl ester]

inhibition at 0.1 µM [1, 7]: 27%
inhibition at 0.1 µM [2, 8]: 7%
inhibition at 0.03 µM [3, 9]: 44%
SMILES: Cc1cnc2c(c1)c1c(n2CCc2cnccn2)CCN2CCCC12 (stereo not drawn) [II-245]

inhibition at 0.1 µM ([1]; 0.1 μM compound, read-out: Percentage inhibition of ligand binding, Adrenergic α1B): 14%
inhibition at 0.1 µM ([2]; 0.1 μM compound, read-out: Percentage inhibition of ligand binding, Adrenergic α2A): 5%
inhibition at 0.03 µM [3, 16]: 37%
SMILES: CC(O)(Cn1c2c(c3cc(Cl)ccc31)CNCC2)c1ccncc1 (stereo not drawn) [II-62, 1-(8-chloro-1,2,3,4-tetrahydro-pyrido[4,3-b]indol-5-yl)-2-pyridin-4-yl-propan-2-ol]

Percentage inhibition of ligand binding, Adrenergic α1B (0.1 μM) [1, 4]: 5%
Percentage inhibition of ligand binding, Adrenergic α2A (0.1 μM) [2, 5]: 8%
SMILES: Cc1ccc2c(c1)c1c(n2CC(C)(O)c2cccnc2)CCN(C)C1C (single isomer, unassigned) [II-152d]
